Assay results taken from patent US11446287B2, “Compounds and methods for EP300 or CBP modulation and indications therefor” (Opna Immuno-Oncology SA, priority 2019, dated 2022).

target: T1, Recombinant human BRD4 containing dual bromodomains (BRD4-BD12 (1-477)) (Homo sapiens, UniProt O60885); assay: BRD4 Alphascreen binding assay
T1 construct: Recombinant human BRD4 containing dual bromodomains (BRD4-BD12 (1-477)); made in house; host or cells: E. coli BL21-CodonPlus (DE3), modified pET vector
In short: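 AlphaScreen proximity between Ni-chelate-bound BRD4-BD12 (1-477) and streptavidin-captured H4 K5/K8/K12/K16-acetyl peptide measured after 1 h room-temperature compound incubation and 30 min with 7.5 μg/ml beads. Buffer: 50 mM HEPES pH 7.5, 50 mM NaCl, 0.01% BSA, 0.01% Triton X-100; data plate-normalized and four-parameter fit for IC50.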

Compound | IC50 [µM]
Cc1noc(C)c1-c1cnc2c(c1)c(-c1ccc(C(=O)O)cc1OC(C)C)cn2-c1cnc(N2CCC2)nc1 [P-0300, 4-(1-(2-(azetidin-1-yl)pyrimidin-5-yl)-5-(3,5-dimethylisoxazol-4-yl)-1H-pyrrolo[2,3-b]pyridin-3-yl)-3-isopropoxybenzoic acid] | 8 to 1000
Cc1noc(C)c1-c1cnc2c(c1)c(-c1ccc(C(=O)O)cc1OC(C)C)cn2[C@H]1CCOC1 [P-0301, (S)-4-(5-(3,5-dimethylisoxazol-4-yl)-1-(tetrahydrofuran-3-yl)-1H-pyrrolo[2,3-b]pyridin-3-yl)-3-isopropoxybenzoic acid] | 8 to 1000
Cc1noc(C)c1-c1cnc2c(c1)c(-c1ccc(S(C)(=O)=O)cc1OC(C)C)cn2-c1ccccc1 [P-0302, 4-(3-(2-isopropoxy-4-(methylsulfonyl)phenyl)-1-phenyl-1H-pyrrolo[2,3-b]pyridin-5-yl)-3,5-dimethylisoxazole] | 8 to 1000
CCCn1nc(C(=O)O)c(N)c1-c1cn(-c2ccc(F)cc2F)c2ncc(-c3c(C)noc3C)cc12 [P-0303, 4-amino-5-(1-(2,4-difluorophenyl)-5-(3,5-dimethylisoxazol-4-yl)-1H-pyrrolo[2,3-b]pyridin-3-yl)-1-propyl-1H-pyrazole-3-carboxylic acid] | 8 to 1000
CCCn1nc(C(=O)O)c(NCC)c1-c1cn(-c2ccc(F)cc2F)c2ncc(-c3c(C)noc3C)cc12 [P-0304, 5-(1-(2,4-difluorophenyl)-5-(3,5-dimethylisoxazol-4-yl)-1H-pyrrolo[2,3-b]pyridin-3-yl)-4-(ethylamino)-1-propyl-1H-pyrazole-3-carboxylic acid] | 1 to 8
Cc1nnn(C)c1-c1cnc2c(c1)c(-c1ccc(C(=O)O)cc1OC(F)(F)F)cn2CC/C=C/C1CC1 [P-0305, (E)-4-(1-(4-cyclopropylbut-3-en-1-yl)-5-(1,4-dimethyl-1H-1,2,3-triazol-5-yl)-1H-pyrrolo[2,3-b]pyridin-3-yl)-3-(trifluoromethoxy)benzoic acid] | 8 to 1000
Cc1noc(C)c1-c1cnc2c(c1)c(-c1ccc(C(=O)O)cc1OCC(F)F)cn2-c1ccncc1Cl [P-0306, 4-(1-(3-chloropyridin-4-yl)-5-(3,5-dimethylisoxazol-4-yl)-1H-pyrrolo[2,3-b]pyridin-3-yl)-3-(2,2-difluoroethoxy)benzoic acid] | 8 to 1000
Cc1noc(C)c1-c1cnc2c(c1)c(-c1ccc(C(=O)O)cc1OC(F)(F)F)cn2-c1ccccc1Cl [P-0307, 4-(1-(2-chlorophenyl)-5-(3,5-dimethylisoxazol-4-yl)-1H-pyrrolo[2,3-b]pyridin-3-yl)-3-(trifluoromethoxy)benzoic acid] | 1 to 8
Cc1noc(C)c1-c1cnc2c(c1)c(-c1ccc(C(=O)O)cc1OC(F)(F)F)cn2-c1ccccc1C1CC1 [P-0308, 4-(1-(2-cyclopropylphenyl)-5-(3,5-dimethylisoxazol-4-yl)-1H-pyrrolo[2,3-b]pyridin-3-yl)-3-(trifluoromethoxy)benzoic acid] | 1 to 8
Cc1noc(C)c1-c1cnc2c(c1)c(-c1ccc(C(=O)O)cc1OC(F)(F)F)cn2-c1ccccc1C#N [P-0309, 4-(1-(2-cyanophenyl)-5-(3,5-dimethylisoxazol-4-yl)-1H-pyrrolo[2,3-b]pyridin-3-yl)-3-(trifluoromethoxy)benzoic acid] | 8 to 1000
Cc1cc(C#N)ccc1-n1cc(-c2ccc(C(=O)O)cc2OC(F)(F)F)c2cc(-c3c(C)noc3C)cnc21 [P-0310, 4-(1-(4-cyano-2-methylphenyl)-5-(3,5-dimethylisoxazol-4-yl)-1H-pyrrolo[2,3-b]pyridin-3-yl)-3-(trifluoromethoxy)benzoic acid] | 1 to 8
COc1ccc(-n2cc(-c3ccc(C(=O)O)cc3OC(F)(F)F)c3cc(-c4c(C)noc4C)cnc32)c(F)c1 [P-0311, 4-(5-(3,5-dimethylisoxazol-4-yl)-1-(2-fluoro-4-methoxyphenyl)-1H-pyrrolo[2,3-b]pyridin-3-yl)-3-(trifluoromethoxy)benzoic acid] | 1 to 8
C=C(C)c1ccccc1-n1cc(-c2ccc(C(=O)O)cc2OC(F)(F)F)c2cc(-c3c(C)noc3C)cnc21 [P-0312, 4-(5-(3,5-dimethylisoxazol-4-yl)-1-(2-(prop-1-en-2-yl)phenyl)-1H-pyrrolo[2,3-b]pyridin-3-yl)-3-(trifluoromethoxy)benzoic acid] | 8 to 1000
Cc1noc(C)c1-c1cnc2c(c1)c(-c1ccc(C(=O)O)cc1OC(F)(F)F)cn2-c1ccc(C#N)cc1 [P-0313, 4-(1-(4-cyanophenyl)-5-(3,5-dimethylisoxazol-4-yl)-1H-pyrrolo[2,3-b]pyridin-3-yl)-3-(trifluoromethoxy)benzoic acid] | 1 to 8
Cc1noc(C)c1-c1cnc2c(c1)c(-c1ccc(C(=O)O)cc1OC(F)(F)F)cn2-c1ccc(C(C)(C)O)cc1 [P-0314, 4-(5-(3,5-dimethylisoxazol-4-yl)-1-(4-(2-hydroxypropan-2-yl)phenyl)-1H-pyrrolo[2,3-b]pyridin-3-yl)-3-(trifluoromethoxy)benzoic acid] | 0.0001 to 1
Cc1noc(C)c1-c1cnc2c(c1)c(-c1ccc(C(=O)O)cc1OC(F)(F)F)cn2-c1ccsc1 [P-0315, 4-(5-(3,5-dimethylisoxazol-4-yl)-1-(thiophen-3-yl)-1H-pyrrolo[2,3-b]pyridin-3-yl)-3-(trifluoromethoxy)benzoic acid] | 0.0001 to 1
